Source: ChEMBL document CHEMBL1201862, “PubChem BioAssay data set” (2004)
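Cultured in 96-well plates, cells were exposed to test compound for 48 hours across five concentrations. At the GI50, growth is halved.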 The source made the active and inactive calls. Rule as the data show it: active = GI50 up to about 1.1 µM and inactive = higher.

How the values were obtained:
Assay in all cases: NCI-60 cell line screen, 48 h
[1] = test system: RXF 393
[2] = test system: UACC-257
[3] = test system: TK-10
[4] = test system: SK-MEL-28
[5] = test system: 786-0
[6] = test system: OVCAR-5
[7] = test system: MCF7
[8] = test system: LXFL 529
[9] = test system: CCRF-CEM
[10] = test system: HCC 2998
[11] = test system: NCI-H460
[12] = test system: K562
[13] = test system: HOP-92
[14] = test system: SNB-75
[15] = test system: OVCAR-4
[16] = test system: U-251
[17] = test system: LOX IMVI
[18] = test system: HT-29
[19] = test system: UO-31
[20] = test system: UACC-62
[21] = test system: HCT-15
[22] = test system: HOP-62
[23] = test system: RXF 631
[24] = test system: DU-145
[25] = test system: BT-549
[26] = test system: EKVX
[27] = test system: DMS-273
[28] = test system: MDA-N
[29] = test system: COLO 205
[30] = test system: DLD-1
[31] = test system: RPMI-8226
[32] = test system: SK-MEL-2
[33] = test system: HL-60
[34] = test system: Malme-3M
[35] = test system: T47D
[36] = test system: M19-MEL
[37] = test system: SW-620
[38] = test system: SK-OV-3
[39] = test system: MDA-MB-435
[40] = test system: KM12
[41] = test system: Hs-578T
[42] = test system: CAKI-1
[43] = test system: MDA-MB-231
[44] = test system: SK-MEL-5
[45] = test system: HCT-116
[46] = test system: NCI-H522
[47] = test system: KM-20L2
[48] = test system: SNB-19
[49] = test system: SF-295
[50] = test system: HOP-18
[51] = test system: SF-268
[52] = test system: PC-3
[53] = test system: ACHN
[54] = test system: MOLT-4
[55] = test system: OVCAR-3
[56] = test system: XF498
[57] = test system: IGROV-1
[58] = test system: SNB-78
[59] = test system: A498
[60] = test system: A549
[61] = test system: M14
[62] = test system: OVCAR-8
[63] = test system: DMS-114
[64] = test system: SF-539
[65] = test system: SR
[66] = test system: NCI-H23

For `ClC(Cl)=C1C(=C(Cl)Cl)C(Cl)(Cl)C1(Cl)Cl`, the GI50 [1] was 1.45 µM (inactive), the GI50 [2] was 3.51 µM (inactive) and the GI50 [3] was 3.52 µM (inactive). The GI50 [4] was 1.44 µM (inactive), the GI50 [5] was 1.07 µM (active) and the GI50 [6] was 2.64 µM (inactive). For the same compound, the GI50 [7] was 4.47 µM (inactive), the GI50 [8] was 0.938 µM (active) and the GI50 [9] was 0.101 µM (active). For the same compound, the GI50 [10] was 4.78 µM (inactive), the GI50 [11] was 3.93 µM (inactive) and the GI50 [12] was 0.443 µM (active). For the same compound, the GI50 [13] was 1.24 µM (inactive), the GI50 [14] was 3.18 µM (inactive) and the GI50 [15] was 5.07 µM (inactive). The GI50 [16] was 5.41 µM (inactive), the GI50 [17] was 0.212 µM (active) and the GI50 [18] was 2.02 µM (inactive). The GI50 [19] was 3.05 µM (inactive), the GI50 [20] was 1.95 µM (inactive) and the GI50 [21] was 1.14 µM. The GI50 [22] was 8.18 µM (inactive), the GI50 [23] was 3.21 µM (inactive) and the GI50 [24] was 10.7 µM (inactive). The GI50 [25] was 2.77 µM (inactive), the GI50 [26] was 7.52 µM (inactive) and the GI50 [27] was 2.64 µM (inactive). For the same compound, the GI50 [28] was 1.37 µM (inactive), the GI50 [29] was 2.92 µM (inactive) and the GI50 [30] was 1.22 µM (inactive). For the same compound, the GI50 [31] was 0.558 µM (active), the GI50 [32] was 1.29 µM (inactive) and the GI50 [33] was 0.625 µM (active). For the same compound, the GI50 [34] was 2.42 µM (inactive), the GI50 [35] was 4.92 µM (inactive) and the GI50 [36] was 2.72 µM (inactive). The GI50 [37] was 1.18 µM (inactive), the GI50 [38] was 14.9 µM (inactive) and the GI50 [39] was 2.71 µM (inactive). For the same compound, the GI50 [40] was 4.9 µM (inactive), the GI50 [41] was 2.36 µM (inactive) and the GI50 [42] was 2.89 µM (inactive). For the same compound, the GI50 [43] was 2.4 µM (inactive), the GI50 [44] was 2.82 µM (inactive) and the GI50 [45] was 1.36 µM (inactive). The GI50 [46] was 0.0612 µM (active), the GI50 [47] was 4.41 µM (inactive) and the GI50 [48] was 12.5 µM (inactive). For the same compound, the GI50 [49] was 2.48 µM (inactive), the GI50 [50] was 5.9 µM (inactive) and the GI50 [51] was 2.21 µM (inactive). For the same compound, the GI50 [52] was 2.31 µM (inactive), the GI50 [53] was 2.48 µM (inactive) and the GI50 [54] was 0.126 µM (active). The GI50 [55] was 4.31 µM (inactive), the GI50 [56] was 9.2 µM (inactive) and the GI50 [57] was 5.55 µM (inactive). The GI50 [58] was 2.34 µM (inactive), the GI50 [59] was 11.6 µM (inactive) and the GI50 [60] was 9.51 µM (inactive). For the same compound, the GI50 [61] was 1.06 µM (active), the GI50 [62] was 1.49 µM (inactive) and the GI50 [63] was 0.748 µM (active). For the same compound, the GI50 [64] was 2.34 µM (inactive), the GI50 [65] was 0.214 µM (active) and the GI50 [66] was 1.04 µM (active).
